Test results as given in patent US20060008574A1, “Galactosyl isomalt, method for production and use thereof” (priority 2002, published 2006).

Key:
human feces = assay: In vitro fermentation in human feces; assay type: cell-based; details: for Degradation rate: 0.5% (w/v) substrate, feces suspension, anaerobic, 37° C.
Description: Incubation of carbohydrates with human feces allows statements to be made about the rate of metabolization by the bacterial population and formation of the short-chain fatty acid butyric acid.
To invest the fermentability in an in vitro fermentation experiment, Raftilose® P95 (fructooligosaccharides, DP4-5), galactosyl lactose (Oligomate DP 3) and lactosucrose were used for comparison as carbohydrates of similar structure and degree of polymerization, in addition to β-galactosyl isomalts.
An anaerobic medium of the following composition was used for the in vitro experiments:
9 mL of the anaerobic medium 1 described above are mixed with 0.5% (w/v) of the galactosyl isomalts to be tested (prepared according to Examples 1-3) and the corresponding controls lactosucrose and galactosyl lactose and then inoculated with 1 mL of a 10% feces suspension (mixed feces from two subjects) in anaerobic 50 mmol/L phosphate buffer, pH 7.0, to which 0.5 g/L cysteine/HCl was added beforehand as reducing agent.
The batches are then incubated in “Hungate” test tubes for a maximum of 28 h while shaking at 37° C. Samples are taken at various times and tested for content of residual oligosaccharides, short-chain fatty acids, lactic acid and pH.

[1] = test system: B. adolescentis DSM 20087; assay: Fermentation by human bifidobacteria; assay type: cell-based; design: key: −: no decomposition; +: decomposition and metabolization of galactose from β-1,3-galactosyl isomalt; ++: decomposition and metabolization of galactose and glucose from β-1,3-galactosyl isomalt; +++: complete decomposition of β-1,3-galcatosyl isomalt; details: medium 2, 48 h
Description: (§1) To investigate the prebiotic and bifidogenic properties of galactosyl isomalt, the growth of various human bifidobacteria was investigated on this substrate in vitro. An anaerobic medium of the following composition was used:
(§2) 22 strains of human bifidobacteria were first precultured in “Hungate” test tubes on the above medium 1, in which the source of carbohydrate had first been replaced by glucose (10 g/L). The strains were then inoculated onto medium 2, incubated for 48 h, and then the optical density (E578), the pH, the formation of acetate and lactate and the decrease of the β-1,3-galactosyl isomalt concentration were determined.
(§3) Various decomposition paths are distinguished with regard to the metabolization of galactosyl isomalt. Some strains degrade galactose from the substrate with a β-galactosidase and metabolize this monosaccharide (+).
(§4) Other strains additionally degrade glucose from the resulting isomalt, in addition to galactose, metabolize both monosaccharides, while this is not true for the resulting mannitol or sorbitol (++). The third group is capable of utilizing galactosyl isomalt as a substrate and also metabolizing mannitol and sorbitol (+++).

B. angulatum DSM 20098 = assay: Fermentation by human bifidobacteria; assay type: cell-based; design: key: −: no decomposition; +: decomposition and metabolization of galactose from β-1,3-galactosyl isomalt; ++: decomposition and metabolization of galactose and glucose from β-1,3-galactosyl isomalt; +++: complete decomposition of β-1,3-galcatosyl isomalt; details: medium 2, 48 h
Description: as §1, §2, §3, §4

B. bifidum DSM 20082 = assay: Fermentation by human bifidobacteria; assay type: cell-based; design: key: −: no decomposition; +: decomposition and metabolization of galactose from β-1,3-galactosyl isomalt; ++: decomposition and metabolization of galactose and glucose from β-1,3-galactosyl isomalt; +++: complete decomposition of β-1,3-galcatosyl isomalt; details: medium 2, 48 h
Description: as §1, §2, §3, §4

B. bifidum DSM 20239 = assay: Fermentation by human bifidobacteria; assay type: cell-based; design: key: −: no decomposition; +: decomposition and metabolization of galactose from β-1,3-galactosyl isomalt; ++: decomposition and metabolization of galactose and glucose from β-1,3-galactosyl isomalt; +++: complete decomposition of β-1,3-galcatosyl isomalt; details: medium 2, 48 h
Description: as §1, §2, §3, §4

B. bifidum DSM 20456 = assay: Fermentation by human bifidobacteria; assay type: cell-based; design: key: −: no decomposition; +: decomposition and metabolization of galactose from β-1,3-galactosyl isomalt; ++: decomposition and metabolization of galactose and glucose from β-1,3-galactosyl isomalt; +++: complete decomposition of β-1,3-galcatosyl isomalt; details: medium 2, 48 h
Description: as §1, §2, §3, §4

B. catenulatum DSM 20103 = assay: Fermentation by human bifidobacteria; assay type: cell-based; design: key: −: no decomposition; +: decomposition and metabolization of galactose from β-1,3-galactosyl isomalt; ++: decomposition and metabolization of galactose and glucose from β-1,3-galactosyl isomalt; +++: complete decomposition of β-1,3-galcatosyl isomalt; details: medium 2, 48 h
Description: as §1, §2, §3, §4

B. catenulatum DSM 20224 = assay: Fermentation by human bifidobacteria; assay type: cell-based; design: key: −: no decomposition; +: decomposition and metabolization of galactose from β-1,3-galactosyl isomalt; ++: decomposition and metabolization of galactose and glucose from β-1,3-galactosyl isomalt; +++: complete decomposition of β-1,3-galcatosyl isomalt; details: medium 2, 48 h
Description: as §1, §2, §3, §4

B. gallicum DSM 20093 = assay: Fermentation by human bifidobacteria; assay type: cell-based; design: key: −: no decomposition; +: decomposition and metabolization of galactose from β-1,3-galactosyl isomalt; ++: decomposition and metabolization of galactose and glucose from β-1,3-galactosyl isomalt; +++: complete decomposition of β-1,3-galcatosyl isomalt; details: medium 2, 48 h
Description: as §1, §2, §3, §4

B. infantis DSM 20088 = assay: Fermentation by human bifidobacteria; assay type: cell-based; design: key: −: no decomposition; +: decomposition and metabolization of galactose from β-1,3-galactosyl isomalt; ++: decomposition and metabolization of galactose and glucose from β-1,3-galactosyl isomalt; +++: complete decomposition of β-1,3-galcatosyl isomalt; details: medium 2, 48 h
Description: as §1, §2, §3, §4

B. infantis DSM 20223 = assay: Fermentation by human bifidobacteria; assay type: cell-based; design: key: −: no decomposition; +: decomposition and metabolization of galactose from β-1,3-galactosyl isomalt; ++: decomposition and metabolization of galactose and glucose from β-1,3-galactosyl isomalt; +++: complete decomposition of β-1,3-galcatosyl isomalt; details: medium 2, 48 h
Description: as §1, §2, §3, §4

B. longum DSM 20219 = assay: Fermentation by human bifidobacteria; assay type: cell-based; design: key: −: no decomposition; +: decomposition and metabolization of galactose from β-1,3-galactosyl isomalt; ++: decomposition and metabolization of galactose and glucose from β-1,3-galactosyl isomalt; +++: complete decomposition of β-1,3-galcatosyl isomalt; details: medium 2, 48 h
Description: as §1, §2, §3, §4

[2] = test system: B. pseudocatenulatum DSM 20438; assay: Fermentation by human bifidobacteria; assay type: cell-based; design: key: −: no decomposition; +: decomposition and metabolization of galactose from β-1,3-galactosyl isomalt; ++: decomposition and metabolization of galactose and glucose from β-1,3-galactosyl isomalt; +++: complete decomposition of β-1,3-galcatosyl isomalt; details: medium 2, 48 h
Description: as §1, §2, §3, §4

[3] = test system: B. pseudocatenulatum DSM 20439; assay: Fermentation by human bifidobacteria; assay type: cell-based; design: key: −: no decomposition; +: decomposition and metabolization of galactose from β-1,3-galactosyl isomalt; ++: decomposition and metabolization of galactose and glucose from β-1,3-galactosyl isomalt; +++: complete decomposition of β-1,3-galcatosyl isomalt; details: medium 2, 48 h
Description: as §1, §2, §3, §4

[4] = test system: glucoamylase/maltase (GM complex); assay: Stability with respect to small intestine α-glucosidases: glucoamylase/maltase; details: 120 min incubation
Description: Solution 1: 0.1 mol/L triethanolamine (TEA) buffer, pH 7.0
Solution 6: 1% solution of maltose in solution 1
Solution 7: 1% solution of sucrose in solution 1
Solution 8: 1% solution of isomalt in solution 1
Solution 9: 1% solution of isomaltulose in solution 1
Solution 11: Glucoamylase/maltase enzyme complex in solution 1
i) 0.7 unit of the enzyme complex saccharase/isomaltase (solution 10) or glucoamylase/maltase (solution 11) was added in each case to 1.0 mL of a carbohydrate solution heated to 37° C. (solution 2 to solution 8), mixed and incubated at 37° C.
ii) For incubation under more severe conditions, 16 units of the enzyme complex saccharase/isomaltase or 13 units of the enzyme complex glucoamylase/maltase were used. The reaction was stopped after 2 h by heating to 95° C. for 15 min. The resulting monosaccharides and the undegraded saccharides of the relevant batches were quantitatively determined by HPAEC.

## OCC1O[C@H](OC[C@@H](O)[C@@H](O)[C@H](O)C(O)CO)C(O)C(O[C@@H]2OC(CO)[C@H](O)C(O)C2O)[C@@H]1O (mixture of isomers) [β-1,3-Galactosyl isomalt, β-D-galactosyl-(1→3)-α-D-glucosyl-(1→6)-D-sorbitol(β-1,3-galactosyl-1,6-GPS) and β-D-galactosyl-(1→3)-α-D-glucosyl-(1→1)-D-mannitol(β-1,3-galactosyl-1,1-GPM)]
Human feces; end of fermentation with human feces
  Butyrate content (end sample): 13.3 mmol/L
Human feces; incubation time 7 (h)
  Degradation rate: 62%
Human feces; incubation time 22 (h)
  Degradation rate: 93.6%
Human feces; incubation time 28 (h)
  Degradation rate: 97%
[1]
  Growth on β-1,3-galactosyl isomalt: +++
B. angulatum DSM 20098
  Growth on β-1,3-galactosyl isomalt: ++
B. bifidum DSM 20082
  Growth on β-1,3-galactosyl isomalt: +
B. bifidum DSM 20239
  Growth on β-1,3-galactosyl isomalt: +
B. bifidum DSM 20456
  Growth on β-1,3-galactosyl isomalt: −
B. catenulatum DSM 20103
  Growth on β-1,3-galactosyl isomalt: ++
B. catenulatum DSM 20224
  Growth on β-1,3-galactosyl isomalt: ++
B. gallicum DSM 20093
  Growth on β-1,3-galactosyl isomalt: −
B. infantis DSM 20088
  Growth on β-1,3-galactosyl isomalt: ++
B. infantis DSM 20223
  Growth on β-1,3-galactosyl isomalt: +++
B. longum DSM 20219
  Growth on β-1,3-galactosyl isomalt: +++
[2]
  Growth on β-1,3-galactosyl isomalt: ++
[3]
  Growth on β-1,3-galactosyl isomalt: ++
[4]; More stringent (13 units)
  Hydrolysis rate [%]: 0%
[4]; Standard (0.7 unit), 37° C., pH 7.0
  Hydrolysis rate [%]: 0%
